Assay results as given in DBAASP.
Converted amounts (≈) assume the structure as drawn.

What was measured:
Assay in all cases: ≥ marks a high value that may be exact or a test limit, other limits are often not marked, values filed in µg/mL are converted to µM
[1] = system: Staphylococcus aureus SH1000
[2] = system: Candida albicans ATCC 10231
[3] = system: Cryptococcus neoformans ATCC 32264
Micrococcus luteus A270 = system: Micrococcus luteus A270
Escherichia coli SBS 363 = system: Escherichia coli SBS 363
[4] = system: Serratia marcescens ATCC 4112
[5] = system: Staphylococcus aureus ATCC 29213
[6] = system: Candida tropicalis IOC 4560
[7] = system: Staphylococcus epidermidis ATCC 12228
[8] = system: Enterobacter cloacae beta-12
Candida albicans MDM8 = system: Candida albicans MDM8
[9] = system: Bacillus megaterium ATCC 10778
[10] = system: Candida albicans ATCC 90028
[11] = system: Staphylococcus aureus NCTC 8325
[12] = system: Batrachochytrium dendrobatidis JEL-197
[13] = system: Escherichia coli ATCC 25922
Staphylococcus aureus = system: Staphylococcus aureus
Bacillus subtilis 168 = system: Bacillus subtilis 168
Escherichia coli B = system: Escherichia coli B
Pseudomonas aeruginosa = system: Pseudomonas aeruginosa
[14] = system: Staphylococcus aureus ATCC 25923
[15] = system: Escherichia coli ATCC 25726
[16] = system: Acinetobacter baumannii ATCC 19606
[17] = system: Cryptococcus neoformans ATCC 208821
[18] = system: Klebsiella pneumoniae ATCC 700603
[19] = system: Pseudomonas aeruginosa ATCC 27853
[20] = system: Staphylococcus aureus ATCC 43300
[21] = system: Bacillus subtilis ATCC 6633

Q: With `CC[C@H](C)[C@H](NC(=O)[C@H](CC(=O)O)NC(=O)[C@H](Cc1ccccc1)NC(=O)[C@H](CC(C)C)NC(=O)CN)C(=O)N[C@@H](CC(C)C)C(=O)N[C@@H](CCCCN)C(=O)N[C@@H](CCCCN)C(=O)N[C@@H](CC(C)C)C(=O)N[C@@H](CC(C)C)C(=O)N[C@@H](CCCCN)C(=O)N[C@@H](CC(C)C)C(=O)N[C@@H](CC(C)C)C(=O)N[C@@H](CCCCN)C(N)=O` [GLFDILKKLLKLLK] as the compound, how does the MIC [1] read?
A: ≥ 100 µM

Q: With `NCCCC[C@H](NC(=O)[C@H](CCCCN)NC(=O)[C@H](Cc1c[nH]c2ccccc12)NC(=O)[C@H](CCCCN)NC(=O)[C@H](CCCN=C(N)N)NC(=O)[C@H](CCCN=C(N)N)NC(=O)[C@H](Cc1c[nH]c2ccccc12)NC(=O)[C@H](CCCCN)NC(=O)[C@@H](N)CCCN=C(N)N)C(N)=O` [RKWRRKWKK] as the compound, how does the MIC [2] read?
A: 200 µM (≈ 274 µg/mL)

Q: And the MIC [3]?
A: ≥ 200 µM

Q: With `CC(C)C[C@H](NC(=O)[C@H](C)NC(=O)CNC(=O)[C@H](CC(C)C)NC(=O)[C@@H](N)CCCCN)C(=O)N[C@@H](Cc1c[nH]c2ccccc12)C(=O)N[C@@H](CC(N)=O)C(=O)N[C@H](C(=O)N[C@@H](C)C(=O)N[C@@H](CCCCN)C(=O)N[C@@H](CO)C(=O)N[C@@H](CCCCN)C(=O)N[C@@H](Cc1ccccc1)C(N)=O)C(C)C` [KLGALWNVAKSKF] as the compound, how does the MIC (Micrococcus luteus A270) read?
A: 25 µM (≈ 36.5 µg/mL)

Q: And the MIC (Escherichia coli SBS 363)?
A: ≥ 50 µM

Q: And the MIC [4]?
A: ≥ 50 µM

Q: And the MIC [5]?
A: > 50 µM

Q: And the MIC [6]?
A: 25 µM (≈ 36.5 µg/mL)

Q: And the MIC [7]?
A: > 50 µM

Q: And the MIC [8]?
A: ≥ 50 µM

Q: And the MIC (Candida albicans MDM8)?
A: 12.5 µM (≈ 18.3 µg/mL)

Q: What about the MIC [9] of the same compound?
A: 6.3 µM (≈ 9.2 µg/mL)

Q: `CC(C)C[C@H](NC(=O)[C@H](C)NC(=O)CNC(=O)[C@H](CC(C)C)NC(=O)[C@@H](N)Cc1ccccc1)C(=O)N[C@@H](Cc1c[nH]c2ccccc12)C(=O)N[C@@H](CCCCN)C(=O)N[C@H](C(=O)N[C@@H](C)C(=O)N[C@@H](CCCCN)C(=O)N[C@@H](CCCCN)C(=O)N[C@H](C(=O)N[C@@H](Cc1ccccc1)C(N)=O)C(C)C)C(C)C` [FLGALWKVAKKVF] was tested. Which MIC (Micrococcus luteus A270) did it give?
A: 0.8 µM (≈ 1.2 µg/mL)

Q: What about the MIC (Escherichia coli SBS 363) of the same compound?
A: 3.1 µM (≈ 4.67 µg/mL)

Q: And the MIC [4]?
A: 0.2 µM (≈ 0.301 µg/mL)

Q: And the MIC [5]?
A: 0.8 µM (≈ 1.2 µg/mL)

Q: And the MIC [6]?
A: 0.8 µM (≈ 1.2 µg/mL)

Q: What about the MIC [7] of the same compound?
A: 6.3 µM (≈ 9.49 µg/mL)

Q: What about the MIC [8] of the same compound?
A: 6.3 µM (≈ 9.49 µg/mL)

Q: What about the MIC (Candida albicans MDM8) of the same compound?
A: 1.6 µM (≈ 2.41 µg/mL)

Q: And the MIC [9]?
A: 0.8 µM (≈ 1.2 µg/mL)

Q: With `CC[C@H](C)[C@H](NC(=O)[C@@H]1CCCN1C(=O)[C@H](CC(C)C)NC(=O)[C@@H](N)Cc1ccccc1)C(=O)N[C@@H](CC(C)C)C(=O)N[C@@H](C)C(=O)N[C@@H](CO)C(=O)N[C@@H](CC(C)C)C(=O)N[C@@H](C)C(=O)N[C@@H](C)C(=O)N[C@@H](CCCCN)C(=O)N[C@@H](CC(C)C)C(=O)NCC(=O)N1CCC[C@H]1C(=O)N[C@@H](CCCCN)C(=O)N[C@@H](CC(C)C)C(=O)N[C@@H](Cc1ccccc1)C(=O)N[C@H]1CSSC[C@@H](C(=O)O)NC(=O)[C@H](CCCCN)NC(=O)[C@H](CCCCN)NC(=O)[C@H]([C@@H](C)O)NC(=O)[C@H](C(C)C)NC(=O)[C@H](CC(C)C)NC1=O` [FLPILASLAAKLGPKLFCLVTKKC] as the compound, how does the MIC [10] read?
A: 16 µM (≈ 41.2 µg/mL)

Q: And the MIC [11]?
A: 4 µM (≈ 10.3 µg/mL)

Q: What about the MIC [12] of the same compound?
A: 6.25 µM (≈ 16.1 µg/mL)

Q: And the MIC [13]?
A: 16 µM (≈ 41.2 µg/mL)

Q: With `CC[C@H](C)[C@H](NC(=O)[C@H](CCCCN)NC(=O)[C@H](CCCCN)NC(=O)[C@H](CC(C)C)NC(=O)[C@H](CC(C)C)NC(=O)[C@H](CO)NC(=O)[C@H](CCSC)NC(=O)[C@H](Cc1c[nH]c2ccccc12)NC(=O)[C@H](CCCCN)NC(=O)CN)C(=O)N[C@@H](CC(C)C)C(=O)N[C@@H](CCCCN)C(N)=O` [GKWMSLLKKILK] as the compound, how does the MIC (Staphylococcus aureus) read?
A: 6.3 µM (≈ 9.1 µg/mL)

Q: And the MIC (Bacillus subtilis 168)?
A: 1.2 µM (≈ 1.73 µg/mL)

Q: And the MIC (Escherichia coli B)?
A: 2.7 µM (≈ 3.9 µg/mL)

Q: What about the MIC (Pseudomonas aeruginosa) of the same compound?
A: 13.8 µM (≈ 19.9 µg/mL)

Q: For `CC[C@H](C)[C@H](NC(=O)CN)C(=O)N[C@@H](CC(C)C)C(=O)N[C@@H](CO)C(=O)N[C@@H](CO)C(=O)N[C@@H](Cc1ccccc1)C(=O)N[C@@H](CCCCN)C(=O)N[C@@H](CC(=O)O)C(=O)N[C@H](C(=O)N[C@@H](C)C(=O)N[C@@H](CCCCN)C(=O)NCC(=O)N[C@H](C(=O)N[C@@H](C)C(=O)N[C@@H](CCCCN)C(=O)N[C@@H](CC(N)=O)C(=O)N[C@H](C(=O)N[C@@H](C)C(=O)N[C@@H](C)C(=O)N[C@@H](CCC(N)=O)C(=O)N[C@@H](CC(C)C)C(=O)N[C@@H](CC(C)C)C(=O)N[C@@H](CC(=O)O)C(=O)N[C@@H](CCCCN)C(=O)N[C@@H](CC(C)C)C(=O)N[C@@H](CCCCN)C(=O)N[C@H]1CSSC[C@@H](C(=O)O)NC(=O)CNC(=O)[C@H]([C@@H](C)O)NC(=O)[C@H]([C@@H](C)CC)NC(=O)[C@H](CCCCN)NC1=O)C(C)C)C(C)C)C(C)C` [GILSSFKDVAKGVAKNVAAQLLDKLKCKITGC], which MIC [14] is on record?
A: 20 µM (≈ 66.4 µg/mL)

Q: What about the MIC [15] of the same compound?
A: 10 µM (≈ 33.2 µg/mL)

Q: And the MIC [12]?
A: ≥ 50 µM

Q: For `CC(C)C[C@H](NC(=O)CN)C(=O)N[C@@H](CC(C)C)C(=O)N[C@@H](CCCCN)C(=O)N[C@@H](CC(C)C)C(=O)N[C@@H](CC(C)C)C(=O)N[C@@H](CCCCN)C(=O)N[C@@H](CCCCN)C(=O)N[C@@H](CC(C)C)C(=O)N[C@@H](CC(C)C)C(=O)N[C@@H](CCCCN)C(=O)N[C@@H](CC(C)C)C(=O)N[C@@H](CC(C)C)C(=O)N[C@@H](CCCCN)C(N)=O` [GLLKLLKKLLKLLK], which MIC [1] is on record?
A: ≥ 33 µM

Q: What about the MIC [10] of the same compound?
A: 12 µM (≈ 19.4 µg/mL)

Q: What about the MIC [16] of the same compound?
A: 1 µM (≈ 1.62 µg/mL)

Q: And the MIC [17]?
A: 1 µM (≈ 1.62 µg/mL)

Q: And the MIC [18]?
A: > 19 µM

Q: And the MIC [19]?
A: > 19 µM

Q: And the MIC [13]?
A: > 19 µM

Q: What about the MIC [20] of the same compound?
A: > 19 µM

Q: With `CC(C)C[C@H](NC(=O)[C@H](C)NC(=O)CNC(=O)[C@@H](NC(=O)[C@@H](NC(=O)[C@H](CCCCN)NC(=O)[C@H](CCCCN)NC(=O)[C@H](CC(C)C)NC(=O)[C@H](CC(C)C)NC(=O)[C@H](CCCCN)NC(=O)[C@H](CC(C)C)NC(=O)[C@H](CC(C)C)NC(=O)[C@@H](N)CCCCN)C(C)C)C(C)C)C(=O)NCC(N)=O` [KLLKLLKKVVGALG] as the compound, how does the MIC [1] read?
A: 10 µM (≈ 14.8 µg/mL)

Q: What about the MIC [10] of the same compound?
A: 22 µM (≈ 32.5 µg/mL)

Q: And the MIC [16]?
A: 5 µM (≈ 7.39 µg/mL)

Q: And the MIC [17]?
A: 11 µM (≈ 16.3 µg/mL)

Q: And the MIC [18]?
A: 22 µM (≈ 32.5 µg/mL)

Q: What about the MIC [19] of the same compound?
A: > 22 µM

Q: What about the MIC [13] of the same compound?
A: 11 µM (≈ 16.3 µg/mL)

Q: And the MIC [20]?
A: 22 µM (≈ 32.5 µg/mL)

Q: `NC(=O)CC[C@H](NC(=O)[C@H](Cc1c[nH]c2ccccc12)NC(=O)[C@H](CCCN=C(N)N)NC(=O)[C@H](CCCN=C(N)N)NC(=O)[C@H](Cc1c[nH]c2ccccc12)NC(=O)[C@H](Cc1c[nH]c2ccccc12)NC(=O)[C@H](CCCN=C(N)N)NC(=O)[C@@H](N)Cc1c[nH]c2ccccc12)C(=O)N[C@@H](CCCN=C(N)N)C(N)=O` [WRWWRRWQR] was tested. Which MIC [2] did it give?
A: 50 µM (≈ 75.7 µg/mL)

Q: And the MIC [3]?
A: 25 µM (≈ 37.9 µg/mL)

Q: For `CC(C)C[C@H](NC(=O)[C@H](C)NC(=O)CNC(=O)[C@H](CC(C)C)NC(=O)[C@@H](N)Cc1ccccc1)C(=O)N[C@@H](Cc1c[nH]c2ccccc12)C(=O)N[C@@H](CC(N)=O)C(=O)N[C@H](C(=O)N[C@@H](C)C(=O)N[C@@H](CCCCN)C(=O)N[C@@H](CO)C(=O)N[C@@H](CC(C)C)C(=O)N[C@@H](Cc1ccccc1)C(N)=O)C(C)C` [FLGALWNVAKSLF], which MIC (Micrococcus luteus A270) is on record?
A: 0.8 µM (≈ 1.17 µg/mL)

Q: What about the MIC (Escherichia coli SBS 363) of the same compound?
A: 0.8 µM (≈ 1.17 µg/mL)

Q: What about the MIC [4] of the same compound?
A: 0.4 µM (≈ 0.586 µg/mL)

Q: And the MIC [5]?
A: 0.8 µM (≈ 1.17 µg/mL)

Q: What about the MIC [21] of the same compound?
A: 0.8 µM (≈ 1.17 µg/mL)

Q: What about the MIC [6] of the same compound?
A: 3.1 µM (≈ 4.54 µg/mL)

Q: What about the MIC [19] of the same compound?
A: > 50 µM

Q: What about the MIC [8] of the same compound?
A: ≥ 50 µM

Q: And the MIC (Candida albicans MDM8)?
A: 3.1 µM (≈ 4.54 µg/mL)

Q: And the MIC [9]?
A: 3.1 µM (≈ 4.54 µg/mL)
